Measured values published in PubChem BioAssay AID1918995 (Molecular Pharmacology Branch, DTP, NCI, 2023).

System: 324938-238-R-J1-PDC complex spheroid growth, % test/control
Assay: Anticancer human tumor 324938-238-R-J1-PDC patient-derived bladder carcinoma cell line growth inhibition [AhR]
Conditions: for IC50: curve of first compound; for viability, T/C: stronger effect = lower value
Excerpt: Multicellular complex tumor spheroid response to aryl hydrocarbon receptor antagonists in combination with a variety of drugs and investigational agents in selected tumor cell lines
The current study was undertaken to assess response to aryl hydrocarbon receptor antagonists in combination with standard-of-care drugs and investigational agents in solid tumor complex spheroid models. Complex spheroids include a stromal component modeled by human endothelial cells (HUVEC) and fibroblasts modeled by human mesenchymal stem cells (MSCs). The concentration ranges selected for each drug and investigational agent were based upon clinically achievable concentrations if the clinical Cmax of the agent was known.
Compounds. The drugs and investigational agents: BAY 2416964 (NSC825713), GNF351 (NSC835774), CH-223191 (NSC835775), CPI-455 (NSC825282), aza-TdCyd (NSC777586), decitabine (NSC127716), belinostat (NSC758774), entinostat (NSC756642), pevonedistat (NSC761192), tazemetostat (NSC777109), talazoparib (NSC765396), olaparib (NSC753686), selinexor (NSC780203), nedisertib (M3814, NSC802822), bortezomib (NSC756655), venetoclax (NSC766270), doxorubicin (NSC123127), elimusertib (BAY189344, NSC800525), ceralasertib (AZD6738, NSC777638), TAK-243 (NSC785004), alisertib (NSC759677), etoposide (NSC141540), topotecan (NSC609699), eribulin (NSC707389), gemcitabine (NSC613327), carboplatin (NSC241240), cisplatin (NSC119875), and SN-38 (NSC673596) were obtained from the National Cancer Institute (NCI) Developmental Therapeutics Program Chemical Repository (32). The FDA-approved anticancer drug set is available from the Developmental Therapeutics Program at https://dtp.cancer.gov/organization/dscb/obtaining/available plates.htm. […] The stock solutions were prepared in dimethyl sulfoxide (DMSO, Sigma-Aldrich, St. Louis, MO, cat. D2650), except for the platinum compounds which were prepared in saline (Quality Biological, Gaithersburg, MD, cat. 114-055-101), at 800-fold the tested concentration and stored at -70 degrees C prior to their use. All drugs and investigational agents were tested over a range starting from a high concentration at or near the clinical Cmax and decreasing in half-log increments. If the clinical Cmax for an agent had not been determined, the highest concentration tested was 10 microM (Table 1).
Cell Culture. All cells were maintained in an incubator at 37 degrees C and 5% CO2 with 95% humidity. The PDC lines were cultured according to standard operating procedures established by the NCI PDMR (https://pdmr.cancer.gov). Briefly, all PDCs were thawed and cultured in Matrigel-coated flasks prepared with a working solution of 1X Ham's F-12 nutrient mix, without supplementation (Invitrogen, Waltham, MA, cat. 11765054), 100 U/mL penicillin-streptomycin (Invitrogen, cat. 15140122), and 2.5% Matrigel (Corning Inc., Corning, NY, cat. 354248) for the first three passages. All PDCs were cultured in complete DMEM/F-12 media containing advanced DMEM/F-12 (Invitrogen, cat. 12634028), 4.9% defined fetal bovine serum, heat inactivated (HyClone Laboratories Inc., Logan, UT, cat. SH30070.03HI), 389 ng/mL hydrocortisone (Sigma-Aldrich, cat. H4001), 9.7 ng/mL human EGF recombinant protein (Invitrogen, cat. PHG0313), 23.4 microg/mL adenine (Sigma-Aldrich, cat. A2786), 97.3 U/mL penicillin-streptomycin (Invitrogen, cat. 15140122), 1.9 mM L-glutamine (Invitrogen, cat. 25030081), and 9.7 microM Y-27632 dihydrochloride (Tocris Bioscience, Bristol, United Kingdom, cat. 1254). The PDCs were cultured in complete DMEM/F12 media without 10 microM Y-27632 dihydrochloride for at least two passages prior to the screen. The established cell lines NCI-H1341 and […] were cultured in DMEM/F-12, HEPES (Invitrogen, cat. 11330032), 5% defined fetal bovine serum (HyClone Laboratories Inc., cat. SH30070.03), ITS premix universal culture supplement [insulin (5 microg/mL), transferrin (5 microg/mL), and selenious acid (5 ng/mL)] […]

[1] = second compound 0.1 µM, first compound 0.0316 µM
[2] = second compound 0.1 µM, first compound 0.1 µM
[3] = second compound 0.1 µM, first compound 0.316 µM
[4] = second compound 0.1 µM, first compound 1 µM
[5] = second compound 0.1 µM, first compound 3.16 µM
[6] = second compound 0.1 µM, first compound 10 µM
[7] = second compound 0.316 µM, first compound 0.0316 µM
[8] = second compound 0.316 µM, first compound 0.1 µM
[9] = second compound 0.316 µM, first compound 0.316 µM
[10] = second compound 0.316 µM, first compound 1 µM
[11] = second compound 0.316 µM, first compound 3.16 µM
[12] = second compound 0.316 µM, first compound 10 µM
[13] = second compound 1 µM, first compound 0.0316 µM
[14] = second compound 1 µM, first compound 0.1 µM
[15] = second compound 1 µM, first compound 0.316 µM
[16] = second compound 1 µM, first compound 1 µM
[17] = second compound 1 µM, first compound 3.16 µM
[18] = second compound 1 µM, first compound 10 µM
[19] = second compound 3.16 µM, first compound 0.0316 µM
[20] = second compound 3.16 µM, first compound 0.1 µM
[21] = second compound 3.16 µM, first compound 0.316 µM
[22] = second compound 3.16 µM, first compound 1 µM
[23] = second compound 3.16 µM, first compound 3.16 µM
[24] = second compound 3.16 µM, first compound 10 µM
[25] = second compound 10 µM, first compound 0.0316 µM
[26] = second compound 10 µM, first compound 0.1 µM
[27] = second compound 10 µM, first compound 0.316 µM
[28] = second compound 10 µM, first compound 1 µM
[29] = second compound 10 µM, first compound 3.16 µM
[30] = second compound 10 µM, first compound 10 µM
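Note: spheroids exposed to agents for seven days before viability read.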

For `CCc1c2c(nc3ccc(O)cc13)-c1cc3c(c(=O)n1C2)COC(=O)[C@]3(O)CC` + CC(CO)NC(=O)c1cc(-c2ccc(Cl)cc2)nn(-c2cnn(C)c2)c1=O, the IC50 (second compound 0.1 µM) was less than 0.000949 µM, the IC50 (second compound 0.316 µM) was less than 0.000949 µM and the IC50 (second compound 1 µM) was less than 0.000949 µM. The IC50 (second compound 3.16 µM) was less than 0.000949 µM, the IC50 (second compound 10 µM) was less than 0.000949 µM and the viability, T/C (second compound 0.1 µM, first compound 0.000949 µM) was 41.3%. For the same compound, the viability, T/C (second compound 0.1 µM, first compound 0.003 µM) was 28.7%, the viability, T/C (second compound 0.1 µM, first compound 0.00949 µM) was 15.3% and the viability, T/C (second compound 0.1 µM, first compound 0.03 µM) was 17.3%. It also gave a viability, T/C (second compound 0.1 µM, first compound 0.0949 µM) of 17.4%, a viability, T/C (second compound 0.1 µM, first compound 0.3 µM) of 15.9% and a viability, T/C (second compound 0.316 µM, first compound 0.000949 µM) of 37.5%. The viability, T/C (second compound 0.316 µM, first compound 0.003 µM) was 31%, the viability, T/C (second compound 0.316 µM, first compound 0.00949 µM) was 17.1% and the viability, T/C (second compound 0.316 µM, first compound 0.03 µM) was 16.9%. It also gave a viability, T/C (second compound 0.316 µM, first compound 0.0949 µM) of 15.8%, a viability, T/C (second compound 0.316 µM, first compound 0.3 µM) of 18.6% and a viability, T/C (second compound 1 µM, first compound 0.000949 µM) of 43.3%. The viability, T/C (second compound 1 µM, first compound 0.003 µM) was 29%, the viability, T/C (second compound 1 µM, first compound 0.00949 µM) was 19.6% and the viability, T/C (second compound 1 µM, first compound 0.03 µM) was 15.5%. For the same compound, the viability, T/C (second compound 1 µM, first compound 0.0949 µM) was 16.1%, the viability, T/C (second compound 1 µM, first compound 0.3 µM) was 15.3% and the viability, T/C (second compound 3.16 µM, first compound 0.000949 µM) was 34%. The viability, T/C (second compound 3.16 µM, first compound 0.003 µM) was 28.9%, the viability, T/C (second compound 3.16 µM, first compound 0.00949 µM) was 18.9% and the viability, T/C (second compound 3.16 µM, first compound 0.03 µM) was 14.5%. It also gave a viability, T/C (second compound 3.16 µM, first compound 0.0949 µM) of 14.6%, a viability, T/C (second compound 3.16 µM, first compound 0.3 µM) of 13.8% and a viability, T/C (second compound 10 µM, first compound 0.000949 µM) of 36.3%. It also gave a viability, T/C (second compound 10 µM, first compound 0.003 µM) of 31.8%, a viability, T/C (second compound 10 µM, first compound 0.00949 µM) of 24.4% and a viability, T/C (second compound 10 µM, first compound 0.03 µM) of 17.1%. It also gave a viability, T/C (second compound 10 µM, first compound 0.0949 µM) of 18.6% and a viability, T/C (second compound 10 µM, first compound 0.3 µM) of 17%.

`Nc1ccn(C2OC(CO)C(O)C2(F)F)c(=O)n1` (stereo not given) + CC(CO)NC(=O)c1cc(-c2ccc(Cl)cc2)nn(-c2cnn(C)c2)c1=O showed an IC50 (second compound 0.1 µM) of less than 0.0316 µM, an IC50 (second compound 0.316 µM) of less than 0.0316 µM and an IC50 (second compound 1 µM) of less than 0.0316 µM. It also gave an IC50 (second compound 3.16 µM) of less than 0.0316 µM, an IC50 (second compound 10 µM) of 0.0386 µM and a viability, T/C [1] of 36.8%. The viability, T/C [2] was 24.1%, the viability, T/C [3] was 18.3% and the viability, T/C [4] was 17.9%. For the same compound, the viability, T/C [5] was 15.3%, the viability, T/C [6] was 12.3% and the viability, T/C [7] was 34.3%. It also gave a viability, T/C [8] of 27.3%, a viability, T/C [9] of 21.7% and a viability, T/C [10] of 18.6%. It also gave a viability, T/C [11] of 16%, a viability, T/C [12] of 11.6% and a viability, T/C [13] of 39%. For the same compound, the viability, T/C [14] was 30.7%, the viability, T/C [15] was 20.2% and the viability, T/C [16] was 19.9%. The viability, T/C [17] was 17.6%, the viability, T/C [18] was 12.9% and the viability, T/C [19] was 43.2%. It also gave a viability, T/C [20] of 38.6%, a viability, T/C [21] of 19.3% and a viability, T/C [22] of 19.8%. The viability, T/C [23] was 18.9%, the viability, T/C [24] was 11.8% and the viability, T/C [25] was 51.3%. The viability, T/C [26] was 43.1%, the viability, T/C [27] was 24.9% and the viability, T/C [28] was 21.4%. For the same compound, the viability, T/C [29] was 19.1% and the viability, T/C [30] was 14.2%.

With `O=C(c1cc(Cc2n[nH]c(=O)c3ccccc23)ccc1F)N1CCN(C(=O)C2CC2)CC1` + CC(CO)NC(=O)c1cc(-c2ccc(Cl)cc2)nn(-c2cnn(C)c2)c1=O the IC50 (second compound 0.1 µM) was 9.56 µM, the IC50 (second compound 0.316 µM) was greater than 10 µM and the IC50 (second compound 1 µM) was greater than 10 µM. It also gave an IC50 (second compound 3.16 µM) of 6.86 µM, an IC50 (second compound 10 µM) of 5.14 µM and a viability, T/C [1] of 97.6%. The viability, T/C [2] was 104%, the viability, T/C [3] was 85.3% and the viability, T/C [4] was 75.6%. The viability, T/C [5] was 66.9%, the viability, T/C [6] was 48.6% and the viability, T/C [7] was 83.3%. It also gave a viability, T/C [8] of 81%, a viability, T/C [9] of 79.2% and a viability, T/C [10] of 69.8%. For the same compound, the viability, T/C [11] was 65.3%, the viability, T/C [12] was 52% and the viability, T/C [13] was 82%. For the same compound, the viability, T/C [14] was 77.1%, the viability, T/C [15] was 75.1% and the viability, T/C [16] was 70.6%. The viability, T/C [17] was 65.7%, the viability, T/C [18] was 54% and the viability, T/C [19] was 65.8%. For the same compound, the viability, T/C [20] was 69.8%, the viability, T/C [21] was 73.7% and the viability, T/C [22] was 57.8%. The viability, T/C [23] was 53.9%, the viability, T/C [24] was 48.4% and the viability, T/C [25] was 58.8%. It also gave a viability, T/C [26] of 63.8%, a viability, T/C [27] of 55.5% and a viability, T/C [28] of 50.5%. For the same compound, the viability, T/C [29] was 54.1% and the viability, T/C [30] was 47.5%.
